The text below walks through data of US10450260B2, “NO- and H2S-releasing compounds” (RESEARCH FOUNDATION OF THE CITY UNIVERSITY OF NEW YORK, priority 2011, dated 2019).

Holding throughout (format): cell-based
Test [1] relates to MIA PaCa-2 human pancreatic cancer. In words: MTT cell growth inhibition, MIA PaCa2. To be noted: for IC50: Homo sapiens, MIA PaCa-2; for Ratio NSAID/NOSH-NSAID, MIAPaCa2: fold-enhancement in potency over the parent compound. How it is done:
(§1) HT-29, SW-480 and HCT-15 human colon adenocarcinoma, MIA PaCa-2 and BxPC-3 human pancreatic cancer, LNCAP human prostate cancer, A549 human lung cancer, MCF-7 (estrogen receptor positive), MDA-MB 231 and SK-BR-3 (estrogen receptor negative) human breast cancer, and Jurkats human leukemia cell lines were obtained from American Type Tissue Collection (Manassas, Va.). All cells lines were grown as monolayers except for the Jurkats which were grown in suspension. The pancreatic and breast cancer cells were grown in Dulbecco's modified Eagle's medium, the prostate, Jurkat, SW-480 and HCT-15 colon cells were grown in RPMI 1640 medium, the lung cells were grown in F-12 and the colon HT-29 cells were grown in McCoy 5A. All media were supplemented with 10% fetal calf serum (Invitrogen, Carlsbad, Calif.) penicillin (50 U/ml), and streptomycin (50 μg/ml) (Invitrogen, Carlsbad, Calif.). Cells were seeded on culture dishes at a density of 25×10^3 cells/cm^2 and incubated at 37° C. in 5% CO2 and 90% relative humidity. Single cell suspensions were obtained by trypsinization (0.05% trypsin/EDTA), and cells were counted using a hemocytometer. Viability was determined by the trypan blue dye exclusion method.
(§2) Cell growth inhibitory effect of NOSH compounds were measured using a colorimetric MTT assay kit (Roche, Indianapolis, Ind.). Cancer cells were plated in 96-well plates at a density of 50,000 cells/well. The cells were incubated for 24 h with different concentrations of NOSH compounds. After the indicated time, 10 μl of MTT dye (3-[4,5-dimethylthiazol-2-yl]-2,5-diphenyl tetrazolium bromide, 5 mg/ml in phosphate buffered saline), was added to each well, and the plates were incubated for 2 hours at 37° C. Then, the media was aspirated, and add 100 μl of the solubilization solution (10% SDS in 0.01 M HCl) was added to each well to solubilize the formant crystals. The absorbance of the plates was measured on an ELISA reader at a wavelength of 570 nm. Each sample was performed in triplicate, and the entire experiment was repeated three times.
(§3) HT-29, SW-480 and HCT-15 human colon adenocarcinoma, MIA PaCa-2 and BxPC-3 human pancreatic cancer, LNCAP human prostate cancer, A549 and H383 human lung cancer, MCF-7, MDA-MB 231 and SK-BR-3 human breast cancer and Jurkat T cell human leukemia cell lines were obtained from American Type Tissue Collection (Manassas, Va.) All cells lines were grown as monolayers except for the Jurkat T cells which were grown as suspension culture. The pancreatic and breast cancer cells were grown in Dulbecco's modified Eagle's medium, the prostate, Jurkat, SW-480 and HCT-15 colon cells were grown in RPMI 1640 medium, the lung cells were grown in F-12 and the colon HT-29 cells were grown in McCoy 5A. All media were supplemented with 10% fetal calf serum (Invitrogen, Carlsbad, Calif.) penicillin (50 U/ml), and streptomycin (50 μg/ml) (Invitrogen, Carlsbad, Calif.). Cells were seeded on culture dishes at a density of 25×10^3 cells/cm^2 and incubated at 37° C. in 5% CO2 and 90% relative humidity. Single cell suspensions were obtained by trypsinization (0.05% trypsin/EDTA), and cells were counted using a hemacytometer. The final DMSO concentration was adjusted in all media to 1%. Viability was determined by the trypan blue dye exclusion method.
(§4) Cell growth inhibitory effect of all NOSH-NSAIDs was measured using a colorimetric MTT assay kit (Roche, Indianapolis, Ind.). Cancer cells were plated in 96-well plates at a density of 30,000-50,000 cells/well depending on cell type. The cells were incubated for 24 hours with different concentrations of NOSH-NSAIDs. After the indicated time, 10 μL of MTT dye (3-[4,5-dimethylthiazol-2-yl]-2,5-diphenyl tetrazolium bromide, 5 mg/mL in phosphate buffered saline), was added to each well, and the plates were incubated for 2 hours at 37° C. Then, the media was aspirated, and 100 μL of the solubilization solution (10% SDS in 0.01 M HCl) was added to each well to solubilize the formant crystals. […]

In test [2] the test system is Jurkat T cell human leukemia. In words: MTT cell growth inhibition, Jurkat. To be noted: for IC50: Homo sapiens, Jurkat; for Ratio NSAID/NOSH-NSAID, Jurkat: fold-enhancement in potency over the parent compound. The protocol: All cells lines were grown as monolayers except for the Jurkats which were grown in suspension. […] All media were supplemented with 10% fetal calf serum (Invitrogen, Carlsbad, Calif.) penicillin (50 U/ml), and streptomycin (50 μg/ml) (Invitrogen, Carlsbad, Calif.). Cells were seeded on culture dishes at a density of 25×10^3 cells/cm^2 and incubated at 37° C. in 5% CO2 and 90% relative humidity. Single cell suspensions were obtained by trypsinization (0.05% trypsin/EDTA), and cells were counted using a hemocytometer. Viability was determined by the trypan blue dye exclusion method.
as §2
All media were supplemented with 10% fetal calf serum (Invitrogen, Carlsbad, Calif.) penicillin (50 U/ml), and streptomycin (50 μg/ml) (Invitrogen, Carlsbad, Calif.). Cells were seeded on culture dishes at a density of 25×10^3 cells/cm^2 and incubated at 37° C. in 5% CO2 and 90% relative humidity. Single cell suspensions were obtained by trypsinization (0.05% trypsin/EDTA), and cells were counted using a hemacytometer. The final DMSO concentration was adjusted in all media to 1%. Viability was determined by the trypan blue dye exclusion method.
Cell growth inhibitory effect of all NOSH-NSAIDs was measured using a colorimetric MTT assay kit (Roche, Indianapolis, Ind.). Cancer cells were plated in 96-well plates at a density of 30,000-50,000 cells/well depending on cell type. The cells were incubated for 24 hours with different concentrations of NOSH-NSAIDs. After the indicated time, 10 μL of MTT dye (3-[4,5-dimethylthiazol-2-yl]-2,5-diphenyl tetrazolium bromide, 5 mg/mL in phosphate buffered saline), was added to each well, and the plates were incubated for 2 hours at 37° C. Then, the media was aspirated, and 100 μL of the solubilization solution (10% SDS in 0.01 M HCl) was added to each well to solubilize the formant crystals. The absorbance of the plates was measured on a spectrophotometric plate reader at a wavelength of 570 nm. Each experiment was performed in triplicate, and the entire experiment was repeated three times.

Test [3] has as its system MDA-MB 231 human breast cancer. Briefly: MTT cell growth inhibition, MDA MB231. To be noted: for IC50: Homo sapiens, MDA-MB-231; for Ratio NSAID/NOSH-NSAID, MDA MB231: fold-enhancement in potency over the parent compound. How it is done:
as §1, §2, §3, §4

Where [4] appears, read: 24 hours, read-out: IC50 for cell growth inhibition, Pancreas MIA PaCa2.
The mark [5] stands for this setting: 24 hours (Table 7), read-out: IC50 for cell growth inhibition, Pancreas MIAPaCa2.

Where two headings read alike, the source gives them in different places.

One may read the IC50 as the concentration at which inhibition is half-maximal. `O=C(CCCO[N+](=O)[O-])Oc1ccccc1C(=O)Oc1ccc(-c2cc(=S)ss2)cc1` [NOSH-1, 4-(3-thioxo-3H-1,2-dithiol-5-yl)phenyl 2-((4-(nitrooxy)butanoyl)oxy)benzoate]: the IC50 was 0.047 ± 0.005 µM in test [1] (setting [4]), 0.1 ± 0.008 µM in test [2] (24 hours) and 0.1 ± 0.011 µM in test [3] (24 hours).
Take `O=C(CCC(=O)Oc1ccccc1C(=O)Oc1ccc(-c2cc(=S)ss2)cc1)OCCCCO[N+](=O)[O-]` [NOSH-2, 4-(nitrooxy)butyl (2-((4-(3-thioxo-3H-1,2-dithiol-5-yl)phenoxy)carbonyl)phenyl) succinate]: the IC50 in test [1] (setting [4]) came to 0.102 ± 0.018 µM; in test [2] (24 hours) it was 0.09 ± 0.005 µM; in test [3] (24 hours), 0.085 ± 0.008 µM.
For `NC(=S)c1ccc(OC(=O)c2ccccc2OC(=O)CCCO[N+](=O)[O-])cc1` [NOSH-3, 4-carbamothioylphenyl 2-((4-(nitrooxy)butanoyl)-oxy)benzoate], the values for the IC50 in test [1] (setting [4]), in test [2] (24 hours) and in test [3] (24 hours) were 4.8 ± 0.322 µM, 7 ± 0.321 µM and 6 ± 0.22 µM, respectively.
The like results for `O=C(CCCC[C@@H]1CCSS1)Oc1ccccc1C(=O)OCCCCO[N+](=O)[O-]` [NOSH-4, (R)-4-(nitrooxy)butyl 2-((5-(1,2-dithiolan-3-yl)pentanoyl)oxy)benzoate] were, in that order, 0.8 ± 0.039 µM, 0.24 ± 0.011 µM and 0.8 ± 0.022 µM.
Regarding `CC(C(=O)Oc1ccc(-c2cc(=S)ss2)cc1)c1ccc2cc(OC(=O)CCCO[N+](=O)[O-])ccc2c1` (centres unmarked) [NOSH-7, 6-(1-oxo-1-(4-(3-thioxo-3H-1,2-dithiol-5-yl)phenoxy)propan-2-yl)naphthalen-2-yl 4-(nitrooxy)butanoate], the IC50 came out at 0.095 µM in test [1] (setting [5]), 0.1 µM in test [2] (24 hours (Table 7)) and 0.11 µM in test [3] (24 hours (Table 7)). Besides, the “Ratio NSAID/NOSH-NSAID, MIAPaCa2” value in test [1] is given as 33,684. In addition, the “Ratio NSAID/NOSH-NSAID, Jurkat” value in test [2] is listed as 25,500. In test [3], the “Ratio NSAID/NOSH-NSAID, MDA MB231” value is listed as 26,363.
Consider `CC1=C(CC(=O)Oc2ccc(OC(=O)CCCO[N+](=O)[O-])c(C(=O)Oc3ccc(-c4cc(=S)ss4)cc3)c2)c2cc(F)ccc2/C1=C/c1ccc([S+](C)[O-])cc1` (centres unmarked) [NOSH-8, (E)-4-(3-thioxo-3H-1,2-dithiol-5-yl)phenyl 5-(2-(5-fluoro-2-methyl-1-(4-(methylsulfinyl)benzylidene)-1H-inden-3-yl)acetoxy)-2-((4-(nitrooxy)butanoyl)oxy)benzoate], for which the IC50 in test [1] (setting [5]) was 0.098 µM; in test [2] (24 hours (Table 7)), 0.27 µM; in test [3] (24 hours (Table 7)) it was 0.098 µM. The “Ratio NSAID/NOSH-NSAID, MIAPaCa2” value in test [1] is reported as 8,081. Besides, in test [2], the “Ratio NSAID/NOSH-NSAID, Jurkat” value is listed as 2,588. For the same compound, in test [3], the “Ratio NSAID/NOSH-NSAID, MDA MB231” value is reported as 9,540.
For `COc1ccc2cc([C@H](C)C(=O)O)ccc2c1` [naproxen, reference compound], the IC50 in test [1] (setting [5]) turned out to be 3200 µM; in test [3] (24 hours (Table 7)), 2900 µM.
On to `CC1=C(CC(=O)O)c2cc(F)ccc2/C1=C\c1ccc([S+](C)[O-])cc1` (centres unmarked) [sulindac, reference compound], for which the results for the IC50 in test [1] (setting [5]), in test [2] (24 hours (Table 7)) and in test [3] (24 hours (Table 7)) were 792 µM, 699 µM and 935 µM, respectively.
